From ChEMBL document CHEMBL4507302, “Data for DCP probe TP-020” (2021)

What was measured:
[1] = target: Mast/stem cell growth factor receptor Kit (Homo sapiens) (UniProt P10721); details: Compound concentration 1000.0 nM
[2] = target: Ephrin type-A receptor 6 (Homo sapiens) (UniProt Q9UF33); details: Compound concentration 1000.0 nM
[3] = target: Receptor-type tyrosine-protein kinase FLT3 (Homo sapiens) (UniProt P36888); details: Compound concentration 1000.0 nM
[4] = target: Serine/threonine-protein kinase B-raf (Homo sapiens) (UniProt P15056); details: Compound concentration 1000.0 nM
[5] = tested on: Proto-oncogene tyrosine-protein kinase receptor Ret (Homo sapiens), P07949 [M918T]; details: Compound concentration 1000.0 nM
[6] = target: Calcium/calmodulin-dependent protein kinase type 1G (Homo sapiens) (UniProt Q96NX5); details: Compound concentration 1000.0 nM
[7] = target: cAMP-dependent protein kinase catalytic subunit alpha (Homo sapiens) (UniProt P17612); details: Compound concentration 1000.0 nM
[8] = target: Ribosomal protein S6 kinase alpha-3 (Homo sapiens) (UniProt P51812); details: Compound concentration 1000.0 nM
[9] = target: Serine/threonine-protein kinase tousled-like 1 (Homo sapiens) (UniProt Q9UKI8); details: Compound concentration 1000.0 nM
[10] = target: cGMP-dependent protein kinase 2 (Homo sapiens) (UniProt Q13237); details: Compound concentration 1000.0 nM
[11] = target: Cytoplasmic tyrosine-protein kinase BMX (Homo sapiens) (UniProt P51813); details: Compound concentration 1000.0 nM
[12] = target: Serine/threonine-protein kinase MRCK alpha (Homo sapiens) (UniProt Q5VT25); details: Compound concentration 1000.0 nM
Sequence of Serine/threonine-protein kinase MRCK alpha (Homo sapiens) (Q5VT25 whole entry): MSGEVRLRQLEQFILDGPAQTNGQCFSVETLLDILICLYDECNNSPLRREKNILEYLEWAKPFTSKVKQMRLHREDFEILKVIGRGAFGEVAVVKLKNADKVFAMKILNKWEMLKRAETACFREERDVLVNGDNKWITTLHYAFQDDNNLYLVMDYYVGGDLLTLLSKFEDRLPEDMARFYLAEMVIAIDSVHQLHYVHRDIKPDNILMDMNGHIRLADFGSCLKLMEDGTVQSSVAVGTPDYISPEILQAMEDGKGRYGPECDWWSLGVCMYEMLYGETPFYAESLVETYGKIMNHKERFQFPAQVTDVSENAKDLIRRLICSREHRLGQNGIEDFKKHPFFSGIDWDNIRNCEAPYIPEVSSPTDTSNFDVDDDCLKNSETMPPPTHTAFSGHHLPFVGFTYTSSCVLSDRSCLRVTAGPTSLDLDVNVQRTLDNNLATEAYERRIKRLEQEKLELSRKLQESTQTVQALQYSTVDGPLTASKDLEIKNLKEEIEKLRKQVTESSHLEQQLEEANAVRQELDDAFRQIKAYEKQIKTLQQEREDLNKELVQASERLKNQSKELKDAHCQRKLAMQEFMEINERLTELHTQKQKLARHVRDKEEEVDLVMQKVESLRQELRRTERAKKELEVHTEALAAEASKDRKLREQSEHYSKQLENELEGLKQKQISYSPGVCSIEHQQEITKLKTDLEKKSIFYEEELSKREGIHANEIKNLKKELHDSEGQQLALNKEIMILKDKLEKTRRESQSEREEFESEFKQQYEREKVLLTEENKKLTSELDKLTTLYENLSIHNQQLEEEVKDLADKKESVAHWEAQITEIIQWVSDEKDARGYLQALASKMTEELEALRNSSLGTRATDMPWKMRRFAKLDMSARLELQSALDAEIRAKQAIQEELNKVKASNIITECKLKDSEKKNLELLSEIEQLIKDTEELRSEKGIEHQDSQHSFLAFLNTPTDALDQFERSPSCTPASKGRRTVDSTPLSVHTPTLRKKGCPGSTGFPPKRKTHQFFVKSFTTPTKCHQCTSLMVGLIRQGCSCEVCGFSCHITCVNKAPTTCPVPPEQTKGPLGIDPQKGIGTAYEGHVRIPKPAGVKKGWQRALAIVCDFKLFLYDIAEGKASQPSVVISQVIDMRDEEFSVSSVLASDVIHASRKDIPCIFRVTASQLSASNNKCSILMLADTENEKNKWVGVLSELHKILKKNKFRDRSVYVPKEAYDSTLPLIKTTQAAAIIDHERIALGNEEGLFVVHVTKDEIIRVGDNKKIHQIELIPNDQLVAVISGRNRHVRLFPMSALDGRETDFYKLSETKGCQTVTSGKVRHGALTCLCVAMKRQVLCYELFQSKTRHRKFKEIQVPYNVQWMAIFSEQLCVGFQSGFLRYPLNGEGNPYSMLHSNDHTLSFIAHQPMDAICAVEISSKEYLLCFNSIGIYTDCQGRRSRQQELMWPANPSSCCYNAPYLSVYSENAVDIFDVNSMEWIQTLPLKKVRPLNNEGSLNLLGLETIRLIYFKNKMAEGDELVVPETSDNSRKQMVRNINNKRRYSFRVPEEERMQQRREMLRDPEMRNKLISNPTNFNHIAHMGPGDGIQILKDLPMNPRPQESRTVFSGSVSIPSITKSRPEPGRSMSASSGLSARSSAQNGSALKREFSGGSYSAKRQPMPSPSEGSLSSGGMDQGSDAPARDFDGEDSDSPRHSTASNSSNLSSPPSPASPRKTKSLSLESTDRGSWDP

[13] = target: Activated CDC42 kinase 1 (Homo sapiens) (UniProt Q07912); details: Compound concentration 1000.0 nM
[14] = target: Aurora kinase A (Homo sapiens) (UniProt O14965); details: Compound concentration 1000.0 nM
[15] = target: Glycogen synthase kinase-3 alpha (Homo sapiens) (UniProt P49840); details: Compound concentration 1000.0 nM
[16] = target: Serine/threonine-protein kinase PAK 2 (Homo sapiens) (UniProt Q13177); details: Compound concentration 1000.0 nM
[17] = target: Serine/threonine-protein kinase Nek11 (Homo sapiens) (UniProt Q8NG66); details: Compound concentration 1000.0 nM
[18] = target: Tyrosine-protein kinase CSK (Homo sapiens) (UniProt P41240); details: Compound concentration 1000.0 nM
[19] = target: Cyclin-dependent kinase 11B (Homo sapiens) (UniProt P21127); details: Compound concentration 1000.0 nM
[20] = target: Alpha-2B adrenergic receptor (Homo sapiens) (UniProt P18089); details: Compound concentration 10.0 uM
Sequence of Alpha-2B adrenergic receptor (Homo sapiens) (P18089 whole entry, canonical isoform): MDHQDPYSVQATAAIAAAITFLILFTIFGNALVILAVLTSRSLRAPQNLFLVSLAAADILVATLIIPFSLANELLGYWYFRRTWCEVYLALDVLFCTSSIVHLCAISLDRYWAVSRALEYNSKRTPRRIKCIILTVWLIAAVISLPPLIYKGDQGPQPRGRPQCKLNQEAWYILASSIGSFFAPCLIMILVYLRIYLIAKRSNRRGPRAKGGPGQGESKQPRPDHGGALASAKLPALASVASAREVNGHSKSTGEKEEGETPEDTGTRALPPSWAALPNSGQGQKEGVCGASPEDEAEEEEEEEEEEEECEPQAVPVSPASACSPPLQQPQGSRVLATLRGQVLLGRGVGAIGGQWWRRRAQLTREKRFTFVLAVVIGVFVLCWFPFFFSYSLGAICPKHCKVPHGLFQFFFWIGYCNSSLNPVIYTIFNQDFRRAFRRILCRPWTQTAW

[21] = target: Phosphatidylinositol 4,5-bisphosphate 3-kinase catalytic subunit alpha isoform (Homo sapiens) (UniProt P42336); details: Compound concentration 1000.0 nM
[22] = tested on: Receptor-type tyrosine-protein kinase FLT3 (Homo sapiens), P36888 [UNDEFINED MUTATION]; details: Compound concentration 1000.0 nM
Sequence of Receptor-type tyrosine-protein kinase FLT3 (Homo sapiens), P36888 [UNDEFINED MUTATION] (P36888 whole entry, looked up, change not shown): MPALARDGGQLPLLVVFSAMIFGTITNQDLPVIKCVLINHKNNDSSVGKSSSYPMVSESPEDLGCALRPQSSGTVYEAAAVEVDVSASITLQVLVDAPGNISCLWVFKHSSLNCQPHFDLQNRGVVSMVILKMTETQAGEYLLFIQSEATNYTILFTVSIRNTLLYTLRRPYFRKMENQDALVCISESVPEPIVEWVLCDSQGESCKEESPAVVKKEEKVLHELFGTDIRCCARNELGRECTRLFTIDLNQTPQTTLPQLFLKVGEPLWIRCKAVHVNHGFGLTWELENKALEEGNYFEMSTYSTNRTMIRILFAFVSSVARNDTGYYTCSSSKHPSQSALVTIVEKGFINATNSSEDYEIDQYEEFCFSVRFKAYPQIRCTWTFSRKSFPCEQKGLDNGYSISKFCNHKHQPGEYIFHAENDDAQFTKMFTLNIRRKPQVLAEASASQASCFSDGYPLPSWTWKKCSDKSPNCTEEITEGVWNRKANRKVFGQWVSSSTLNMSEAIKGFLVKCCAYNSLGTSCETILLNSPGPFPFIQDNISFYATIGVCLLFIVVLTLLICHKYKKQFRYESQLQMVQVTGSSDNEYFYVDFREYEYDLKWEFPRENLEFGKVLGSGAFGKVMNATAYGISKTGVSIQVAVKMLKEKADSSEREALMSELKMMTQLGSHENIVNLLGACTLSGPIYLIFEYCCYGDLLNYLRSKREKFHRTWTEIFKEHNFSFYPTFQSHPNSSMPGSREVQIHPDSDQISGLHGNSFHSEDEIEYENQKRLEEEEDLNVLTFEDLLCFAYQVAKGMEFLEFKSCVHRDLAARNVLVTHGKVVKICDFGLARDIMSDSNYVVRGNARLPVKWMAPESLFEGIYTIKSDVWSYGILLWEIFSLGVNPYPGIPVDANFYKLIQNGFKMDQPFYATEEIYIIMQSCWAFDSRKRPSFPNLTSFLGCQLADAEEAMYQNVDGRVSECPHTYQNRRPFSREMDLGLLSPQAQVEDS

[23] = target: 5-hydroxytryptamine receptor 1B (Homo sapiens) (UniProt P28222); details: Compound concentration 10.0 uM
Sequence of 5-hydroxytryptamine receptor 1B (Homo sapiens) (P28222 whole entry): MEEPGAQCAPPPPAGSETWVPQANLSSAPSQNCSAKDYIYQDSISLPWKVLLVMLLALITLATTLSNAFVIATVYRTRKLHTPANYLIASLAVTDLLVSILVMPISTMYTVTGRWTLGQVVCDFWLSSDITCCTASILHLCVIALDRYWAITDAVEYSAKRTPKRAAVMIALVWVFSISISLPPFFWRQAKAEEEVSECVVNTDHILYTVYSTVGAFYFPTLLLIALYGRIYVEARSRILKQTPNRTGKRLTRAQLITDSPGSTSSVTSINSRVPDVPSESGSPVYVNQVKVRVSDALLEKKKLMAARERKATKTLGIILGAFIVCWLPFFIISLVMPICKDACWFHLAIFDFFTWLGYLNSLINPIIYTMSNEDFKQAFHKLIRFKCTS

[24] = target: STE20/SPS1-related proline-alanine-rich protein kinase (Homo sapiens) (UniProt Q9UEW8); details: Compound concentration 1000.0 nM
[25] = tested on: Phosphatidylinositol 4,5-bisphosphate 3-kinase catalytic subunit alpha isoform (Homo sapiens), P42336 [Q546K]; details: Compound concentration 1000.0 nM
[26] = target: Serine/threonine-protein kinase 25 (Homo sapiens) (UniProt O00506); details: Compound concentration 1000.0 nM
Sequence of Serine/threonine-protein kinase 25 (Homo sapiens) (O00506 whole entry, looked up): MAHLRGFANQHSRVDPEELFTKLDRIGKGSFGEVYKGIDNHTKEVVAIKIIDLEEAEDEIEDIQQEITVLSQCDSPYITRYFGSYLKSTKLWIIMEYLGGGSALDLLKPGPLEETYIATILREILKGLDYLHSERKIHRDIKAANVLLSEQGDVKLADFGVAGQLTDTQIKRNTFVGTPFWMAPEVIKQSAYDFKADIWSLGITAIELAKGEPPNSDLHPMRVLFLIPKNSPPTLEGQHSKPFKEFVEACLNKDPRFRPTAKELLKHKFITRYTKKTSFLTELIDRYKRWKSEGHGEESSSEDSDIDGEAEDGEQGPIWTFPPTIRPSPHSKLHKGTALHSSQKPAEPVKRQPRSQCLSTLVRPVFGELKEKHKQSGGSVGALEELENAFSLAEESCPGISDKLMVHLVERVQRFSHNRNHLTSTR

[27] = target: Rho-associated protein kinase 2 (Homo sapiens) (UniProt O75116); details: Compound concentration 1000.0 nM
[28] = target: Mitogen-activated protein kinase 15 (Homo sapiens) (UniProt Q8TD08); details: Compound concentration 1000.0 nM
[29] = target: Mitogen-activated protein kinase 11 (Homo sapiens) (UniProt Q15759); details: Compound concentration 1000.0 nM
[30] = target: Tyrosine-protein kinase ABL2 (Homo sapiens) (UniProt P42684); details: Compound concentration 1000.0 nM
[31] = target: Cyclin-dependent kinase 2 homolog (Plasmodium falciparum (isolate 3D7)) (UniProt P61075); details: Compound concentration 1000.0 nM
[32] = target: Mitogen-activated protein kinase kinase kinase 6 (Homo sapiens) (UniProt O95382); details: Compound concentration 1000.0 nM
[33] = target: Receptor-type tyrosine-protein kinase FLT3 (Homo sapiens) (UniProt P36888); details: Compound concentration 1000.0 nM; remark: listed apart in the source
[34] = target: Ribosomal protein S6 kinase beta-1 (Homo sapiens) (UniProt P23443); details: Compound concentration 1000.0 nM
Sequence of Ribosomal protein S6 kinase beta-1 (Homo sapiens) (P23443 whole entry, looked up): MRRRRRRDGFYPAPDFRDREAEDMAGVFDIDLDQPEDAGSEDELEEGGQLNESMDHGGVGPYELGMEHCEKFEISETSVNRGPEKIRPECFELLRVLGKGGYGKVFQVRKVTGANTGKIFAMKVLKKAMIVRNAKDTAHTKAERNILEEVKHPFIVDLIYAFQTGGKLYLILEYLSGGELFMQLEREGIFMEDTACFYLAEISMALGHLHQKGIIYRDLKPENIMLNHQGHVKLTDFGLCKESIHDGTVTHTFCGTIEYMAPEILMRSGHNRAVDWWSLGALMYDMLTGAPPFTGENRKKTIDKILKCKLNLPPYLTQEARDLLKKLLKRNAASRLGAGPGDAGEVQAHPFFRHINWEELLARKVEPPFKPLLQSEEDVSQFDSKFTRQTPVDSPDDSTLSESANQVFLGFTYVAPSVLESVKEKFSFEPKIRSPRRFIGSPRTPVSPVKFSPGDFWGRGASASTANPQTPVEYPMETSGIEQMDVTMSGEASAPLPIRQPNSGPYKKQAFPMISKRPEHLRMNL

[35] = target: Vascular endothelial growth factor receptor 3 (Homo sapiens) (UniProt P35916); details: Compound concentration 1000.0 nM
[36] = target: Activin receptor type-1 (Homo sapiens) (UniProt Q04771); details: Compound concentration 1000.0 nM
Sequence of Activin receptor type-1 (Homo sapiens) (Q04771 whole entry): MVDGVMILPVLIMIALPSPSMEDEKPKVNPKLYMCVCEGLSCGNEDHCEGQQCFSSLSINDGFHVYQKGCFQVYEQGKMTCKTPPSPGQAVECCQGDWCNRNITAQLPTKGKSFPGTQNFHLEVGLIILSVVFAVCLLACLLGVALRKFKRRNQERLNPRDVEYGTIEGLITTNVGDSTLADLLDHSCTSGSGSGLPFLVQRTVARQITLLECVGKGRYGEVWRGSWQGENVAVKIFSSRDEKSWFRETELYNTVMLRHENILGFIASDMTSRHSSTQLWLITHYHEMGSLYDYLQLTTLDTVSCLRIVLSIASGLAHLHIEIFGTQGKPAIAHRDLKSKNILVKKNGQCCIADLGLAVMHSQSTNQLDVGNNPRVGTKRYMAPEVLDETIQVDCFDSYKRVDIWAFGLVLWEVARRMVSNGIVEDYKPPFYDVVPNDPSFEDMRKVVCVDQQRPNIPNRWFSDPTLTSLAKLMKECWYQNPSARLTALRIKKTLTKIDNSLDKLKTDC

[37] = target: Inhibitor of nuclear factor kappa-B kinase subunit epsilon (Homo sapiens) (UniProt Q14164); details: Compound concentration 1000.0 nM
[38] = target: GABA-A receptor; anion channel (Rattus norvegicus) (UniProt O09028+P15431+P18506+P18508+P19969+P20236+P23574+P23576+P28471+P28473+P30191+P62813+P63079+P63138+Q91ZM7+Q9ES14); details: Compound concentration 10.0 uM
[39] = target: Serine/threonine-protein kinase 38-like (Homo sapiens) (UniProt Q9Y2H1); details: Compound concentration 1000.0 nM
[40] = target: Serine/threonine-protein kinase tousled-like 2 (Homo sapiens) (UniProt Q86UE8); details: Compound concentration 1000.0 nM
[41] = target: Transient receptor potential cation channel subfamily M member 6 (Homo sapiens) (UniProt Q9BX84); details: Compound concentration 1000.0 nM
[42] = target: Receptor-interacting serine/threonine-protein kinase 4 (Homo sapiens) (UniProt P57078); details: Compound concentration 1000.0 nM
[43] = target: Histamine H2 receptor (Homo sapiens) (UniProt P25021); details: Compound concentration 10.0 uM

Sequence of Receptor-type tyrosine-protein kinase FLT3 (Homo sapiens) (P36888 whole entry): as the sequence (P36888 whole entry, looked up, change not shown) above

SMILES: Nc1cnc(N2CCc3cc(S(=O)(=O)Nc4c(F)cc(Cl)cc4F)cc(N4CCCC4=O)c32)nc1
- residual activity [1]: 100%
- residual activity [2]: 98%
- residual activity [3]: 91%
- residual activity [4]: 98%
- residual activity [5]: 100%
- residual activity [6]: 100%
- residual activity [7]: 100%
- residual activity [8]: 84%
- residual activity [9]: 100%
- residual activity [10]: 84%
- residual activity [11]: 100%
- residual activity [12]: 100%
- residual activity [13]: 91%
- residual activity [14]: 100%
- residual activity [15]: 100%
- residual activity [16]: 78%
- residual activity [17]: 100%
- residual activity [18]: 99%
- residual activity [19]: 100%
- inhibition [20]: 0.99%
- residual activity [21]: 76%
- residual activity [22]: 92%
- inhibition [23]: -3.82%
- residual activity [24]: 100%
- residual activity [25]: 78%
- residual activity [26]: 88%
- residual activity [27]: 100%
- residual activity [28]: 84%
- residual activity [29]: 100%
- residual activity [30]: 95%
- residual activity [31]: 100%
- residual activity [32]: 75%
- residual activity [33]: 81%
- residual activity [34]: 83%
- residual activity [35]: 86%
- residual activity [36]: 100%
- residual activity [37]: 95%
- inhibition [38]: 20.5%
- residual activity [39]: 42%
- residual activity [40]: 79%
- residual activity [41]: 93%
- residual activity [42]: 76%
- inhibition [43]: 8.19%

SMILES: Cn1nc(C(F)(F)F)cc1-c1cnc(N2CCc3cc(S(=O)(=O)Nc4c(F)cc(Cl)cc4F)cc(N4CCCC4=O)c32)nc1 [TP-020]
- residual activity [1]: 91%
- residual activity [2]: 89%
- residual activity [3]: 100%
- residual activity [4]: 82%
- residual activity [5]: 100%
- residual activity [6]: 100%
- residual activity [7]: 100%
- residual activity [8]: 100%
- residual activity [9]: 78%
- residual activity [10]: 90%
- residual activity [11]: 81%
- residual activity [12]: 100%
- residual activity [13]: 100%
- residual activity [14]: 88%
- residual activity [15]: 95%
- residual activity [16]: 100%
- residual activity [17]: 78%
- residual activity [18]: 93%
- residual activity [19]: 100%
- inhibition [20]: 18.5%
- residual activity [21]: 100%
- residual activity [22]: 96%
- inhibition [23]: 9.13%
- residual activity [24]: 91%
- residual activity [25]: 82%
- residual activity [26]: 100%
- residual activity [27]: 85%
- residual activity [28]: 78%
- residual activity [29]: 100%
- residual activity [30]: 100%
- residual activity [31]: 73%
- residual activity [32]: 67%
- residual activity [33]: 85%
- residual activity [34]: 78%
- residual activity [35]: 96%
- residual activity [36]: 85%
- residual activity [37]: 94%
- inhibition [38]: 7.89%
- residual activity [39]: 88%
- residual activity [40]: 94%
- residual activity [41]: 79%
- residual activity [42]: 67%
- inhibition [43]: 12.1%
